Target: T1, Full length human recombinant HDAC6 protein (Homo sapiens, UniProt Q9UBN7)
T1 sequence (Q9UBN7 1-1215): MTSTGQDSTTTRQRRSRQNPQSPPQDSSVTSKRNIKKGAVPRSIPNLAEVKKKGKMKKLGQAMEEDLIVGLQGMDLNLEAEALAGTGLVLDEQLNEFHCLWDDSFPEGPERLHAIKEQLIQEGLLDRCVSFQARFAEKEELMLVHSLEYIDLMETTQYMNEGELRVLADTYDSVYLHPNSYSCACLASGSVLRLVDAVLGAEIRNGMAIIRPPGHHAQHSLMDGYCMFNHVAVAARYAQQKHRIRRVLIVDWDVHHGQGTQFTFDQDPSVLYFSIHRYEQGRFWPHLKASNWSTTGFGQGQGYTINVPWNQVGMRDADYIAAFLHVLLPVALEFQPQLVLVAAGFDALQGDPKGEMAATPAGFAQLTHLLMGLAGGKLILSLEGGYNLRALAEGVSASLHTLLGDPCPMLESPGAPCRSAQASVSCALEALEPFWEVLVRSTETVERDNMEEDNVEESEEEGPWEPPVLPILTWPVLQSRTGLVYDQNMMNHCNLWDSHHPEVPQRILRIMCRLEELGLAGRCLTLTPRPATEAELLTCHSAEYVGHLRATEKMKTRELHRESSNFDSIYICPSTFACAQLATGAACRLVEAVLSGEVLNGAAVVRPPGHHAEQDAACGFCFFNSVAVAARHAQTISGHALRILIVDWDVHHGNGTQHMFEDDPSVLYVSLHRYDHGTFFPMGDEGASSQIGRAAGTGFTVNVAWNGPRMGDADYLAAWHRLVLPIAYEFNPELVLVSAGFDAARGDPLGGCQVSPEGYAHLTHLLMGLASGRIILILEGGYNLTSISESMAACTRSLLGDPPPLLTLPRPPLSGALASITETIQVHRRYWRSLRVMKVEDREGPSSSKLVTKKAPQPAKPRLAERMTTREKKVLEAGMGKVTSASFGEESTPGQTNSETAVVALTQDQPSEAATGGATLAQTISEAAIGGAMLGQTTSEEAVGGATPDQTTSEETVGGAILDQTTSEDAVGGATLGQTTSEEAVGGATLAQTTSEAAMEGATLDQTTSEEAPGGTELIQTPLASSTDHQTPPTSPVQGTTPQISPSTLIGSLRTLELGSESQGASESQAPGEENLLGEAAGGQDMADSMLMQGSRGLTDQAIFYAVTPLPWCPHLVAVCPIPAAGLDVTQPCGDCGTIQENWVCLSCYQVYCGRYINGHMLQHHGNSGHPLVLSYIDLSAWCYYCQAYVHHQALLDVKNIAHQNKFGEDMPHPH
Assay: In vitro histone deacetylase assay: enzymatic HDAC6 electrophoretic mobility shift assay
Format: biochemical
Conditions: 1 nM enzyme, 2 μM peptide substrate RHKK(Ac)-NH2, 25° C., 12 concentrations; read-out: Inhibitory Concentration (IC50) Values against HDAC6, Activity Range

Row | Compound | IC50 [nM]
1 | C[C@H]1c2ccc(C(=O)NO)cc2OCCN1C(=O)C1(C)CCC1 [(S)-N-hydroxy-5-methyl-4-(1-methylcyclobutane-1-carbonyl)-2,3,4,5-tetrahydrobenzo[f][1,4]oxazepine-8-carboxamide] | ≤ 100
2 | COCC1(C(=O)N2CCOc3cc(C(=O)NO)ccc3C2)CC1 [N-hydroxy-4-(1-(methoxymethyl)cyclopropane-1-carbonyl)-2,3,4,5-tetrahydrobenzo[f][1,4]oxazepine-8-carboxamide] | ≤ 100
3 | O=C(NO)c1ccc2c(c1)OCCN(C(=O)C1(c3cnccn3)CC1)C2 [N-hydroxy-4-(1-(pyrazin-2-yl)cyclopropane-1-carbonyl)-2,3,4,5-tetrahydrobenzo[f][1,4]oxazepine-8-carboxamide] | ≤ 100
4 | C[C@H]1COc2cc(C(=O)NO)ccc2CN1C=O [(S)-4-formyl-N-hydroxy-3-methyl-2,3,4,5-tetrahydrobenzo[f][1,4]oxazepine-8-carboxamide] | ≤ 100
5 | CC(C)[C@@H]1COc2cc(C(=O)NO)ccc2CN1C(=O)C1(C)CCC1 [(R)-N-hydroxy-3-isopropyl-4-(1-methylcyclobutane-1-carbonyl)-2,3,4,5-tetrahydrobenzo[f][1,4]oxazepine-8-carboxamide] | > 500
6 | O=C(NO)c1ccc2c(c1)OCCN(C(=O)c1ccc3c(c1)CCO3)C2 [4-(2,3-dihydrobenzofuran-5-carbonyl)-N-hydroxy-2,3,4,5-tetrahydrobenzo[f][1,4]oxazepine-8-carboxamide] | 100 to 500
7 | O=C(NO)c1ccc2c(c1)OCCN(C(=O)C1CCC(F)(F)C1)C2 (stereo not shown) [4-(3,3-difluorocyclopentane-1-carbonyl)-N-hydroxy-2,3,4,5-tetrahydrobenzo[f][1,4]oxazepine-8-carboxamide] | ≤ 100
8 | CO[C@H]1CC[C@@H](C(=O)N2CCOc3cc(C(=O)NO)ccc3[C@@H]2C)CC1 (single isomer, unassigned) | ≤ 100
9 | O=C(NO)c1ccc2c(c1)OCCN(C(=O)C1CCOCC1)C2 [N-hydroxy-4-(tetrahydro-2H-pyran-4-carbonyl)-2,3,4,5-tetrahydrobenzo[f][1,4]oxazepine-8-carboxamide] | ≤ 100
10 | CC(=O)N1CCOc2cc(C(=O)NO)ccc2C1 [4-acetyl-N-hydroxy-2,3,4,5-tetrahydrobenzo[f][1,4]oxazepine-8-carboxamide] | ≤ 100
11 | C[C@H]1COc2cc(C(=O)NO)ccc2CN1C(=O)C(C)(C)c1cccnc1 [(S)-N-hydroxy-3-methyl-4-(2-methyl-2-(pyridin-3-yl)propanoyl)-2,3,4,5-tetrahydrobenzo[f][1,4]oxazepine-8-carboxamide] | ≤ 100
12 | CC(C)[C@@H]1c2ccc(C(=O)NO)cc2OCCN1C(=O)C1COC1 [(R)-N-hydroxy-5-isopropyl-4-(oxetane-3-carbonyl)-2,3,4,5-tetrahydrobenzo[f][1,4]oxazepine-8-carboxamide] | > 500
13 | O=C(NO)c1ccc2c(c1)OCCN(C(=O)C1(c3ccccn3)CC1)C2 [N-hydroxy-4-(1-(pyridin-2-yl)cyclopropane-1-carbonyl)-2,3,4,5-tetrahydrobenzo[f][1,4]oxazepine-8-carboxamide] | ≤ 100
14 | COC1(C(=O)N2Cc3ccc(C(=O)NO)cc3OC[C@@H]2C)CCCC1 [(S)-N-hydroxy-4-(1-methoxycyclopentane-1-carbonyl)-3-methyl-2,3,4,5-tetrahydrobenzo[f][1,4]oxazepine-8-carboxamide] | ≤ 100
15 | CCC(C(=O)N1CCOc2cc(C(=O)NO)ccc2C1)c1ccccc1 (stereo not shown) [N-hydroxy-4-(2-phenylbutanoyl)-2,3,4,5-tetrahydrobenzo[f][1,4]oxazepine-8-carboxamide] | 100 to 500
16 | CCC1(C(=O)N2Cc3ccc(C(=O)NO)cc3OC[C@@H]2C)COC1 [(S)-4-(3-ethyloxetane-3-carbonyl)-N-hydroxy-3-methyl-2,3,4,5-tetrahydrobenzo[f][1,4]oxazepine-8-carboxamide] | ≤ 100

— patent US11891365B2, “3-alkyl-4-amido-bicyclic [4,5,0] hydroxamic acids as HDAC inhibitors” (Valo Health, Inc., priority 2015, dated 2024)
